Measured values reported in US20260174875A1 (Novo Nordisk A/S, priority 2023, published 2026).
Numbered stars: 1 amine (or outer) side, 2 acyl side, 3 side chain; on linkers, the order of the positions; unused ones are H or OH. Square brackets hold non-standard residues; d marks the D form. Side chains are listed from the residue outwards. * marks the point of attachment. C16 diacid = O=C(O)CCCCCCCCCCCCCCC(=O)*; γGlu = O=C(O)[C@H](CCC(=O)[*:2])N[*:1]; AEEA = NCCOCCOCC(=O)O; Aib = CC(C)(N)C(=O)O

Columns and labels:
[1] = target: T1, human GLP-1 receptor (hGLP-1R) (Homo sapiens, UniProt P43220); assay: GLP-1 receptor assay, method B (CRE-luciferase reporter, BHK cells, 384-well); type: cell-based
T1 construct: expressed in transfected cells

[2] = target: T2, human GIP receptor (hGIPR) (Homo sapiens, UniProt P48546); assay: GIP receptor assay, method B (CRE-luciferase reporter, BHK cells, 384-well); type: cell-based
T2 construct: expressed in transfected cells
T2 sequence (P48546 22-466): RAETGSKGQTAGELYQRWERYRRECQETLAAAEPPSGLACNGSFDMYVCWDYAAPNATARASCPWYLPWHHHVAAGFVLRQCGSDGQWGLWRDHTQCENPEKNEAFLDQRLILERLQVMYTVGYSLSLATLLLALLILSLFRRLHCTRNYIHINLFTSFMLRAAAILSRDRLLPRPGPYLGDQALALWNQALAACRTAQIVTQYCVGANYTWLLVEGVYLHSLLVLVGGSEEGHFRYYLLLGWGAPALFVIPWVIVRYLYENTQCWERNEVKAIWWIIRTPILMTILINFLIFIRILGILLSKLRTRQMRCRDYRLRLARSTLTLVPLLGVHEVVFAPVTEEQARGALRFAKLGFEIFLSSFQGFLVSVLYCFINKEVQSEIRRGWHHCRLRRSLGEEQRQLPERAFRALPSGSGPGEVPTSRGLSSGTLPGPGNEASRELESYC

[3] = target: T3, human amylin receptor (hAMYR3) (Homo sapiens, UniProt O60896+P30988); assay: Amylin receptor assay, method B (CRE-luciferase reporter, BHK cells); type: cell-based
T3 construct: host or cells: BHK cells (Hollex-1 line expressing hCTR(a) and CRE-Luc), further transfected with human RAMP3
Outline: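 BHK cells with CRE-luciferase, co-expressing hAMYR3 and transfected with human RAMP3, seeded overnight, then exposed 3 h at 37 °C to compound. Buffer: phenol red-free DMEM, 10 mM HEPES, 1% ovalbumin, with 0% or 1% (w/v) HSA. Luminescence read after 30 min with steadylite Plus.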

[4] = Chemical stability assessment in formulation (UPLC-UV-MS purity loss at 37° C.); type: physicochemical; conditions: 8 mM phosphate buffer pH 7.4, 1 mg/mL, 2 weeks
Outline: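 Degradation tracked by UPLC-UV-MS (formic acid/acetonitrile gradient) on samples drawn over 2 weeks at 37° C. Solutions were made at a 1 mg/mL target in 8 mM phosphate, pH 7.4, kept in sealed vials and frozen after sampling.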

[5] = tested on: Male Sprague Dawley (SD) rats; assay: Efficacy testing on appetite: acute food intake in ad libitum fed normal weight rats; type: in vivo, rat; conditions: single dose 10 nmol/kg
Excerpt: Male Sprague Dawley (SD) rats from Taconic, Denmark were used for the acute food intake experiments, wherein the principles of laboratory animal care were followed.
The rats arrived at least 10-14 days before the start of the experiment to allow acclimatization to experimental settings. During this period, the animals were handled (fixation by restrain in neck skin) at least 2 times. Immediately upon arrival, rats were changed to a reversed light cycle (dark from 11 am-11 pm) and were transferred to an automated food intake measuring system (HM2 system, MBRose; Faaborg, Denmark). […] To enable recording of individual food intake, rats were ID chipped. Three rats were housed in each cage. During the acclimatization period, in which the rats get used to the new light cycle and diet (LF 10% (D12450B), from Research Diets Inc.), the animals had free access to food and water. Since rats are normally active and consume most of their daily calories during the dark period, rats were dosed in the morning right before lights were turned off. Such a set-up results in the lowest data variation and highest test sensitivity. […] In each cage there were animals from three different treatment groups (to eliminate potential cage effects (e.g. cage malfunction) on primary readout: food intake). The rats were dosed once subcutaneously (s.c.) with the peptide of interest according to body weight (10 or 30 nmol/kg) in vehicle (0.5 ml/kg) using a NovoPen® (Novo Nordisk, Bagsvæed, Denmark).
The compounds of the invention were formulated (20 or 60 nmol/ml) in the following vehicle: 8 mM phosphate; 250 mM glycerol; 0.007% polysorbate 20, pH 7.4.
After dosing, the rats were returned to their home cages, where they continued to have ad libitum access to chow and water. The food consumption was recorded individually and continuously by the HM2 system from 0-72 h after test compound administration. Data obtained by the HM-2 system were stored in a HMBase SQL database (Firebird® relational database management system) and were processed by HM2Lab software (MBRose; Faaborg, Denmark) installed in an embedded computer. The feeding system is a highly sensitive system with a load resolution of 0.001 g.

[6] = target: T1, human GLP-1 receptor (hGLP-1R); assay: GLP-1 receptor assay, method A (CRE-luciferase reporter, BHK cells); type: cell-based; conditions: method A, absence of HSA; read-out: hGLP-1R Potency, no HSA, EC50
Outline: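 Read-out: steadylite Plus luminescence after 30 min shaking at room temperature in the dark. hGLP-1R BHK CRE-Luc cells were stimulated for 3 h at 37° C, 5% CO2. Runs were done in the absence and presence of 1% (w/v) HSA.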

[7] = target: T2, human GIP receptor (hGIPR); assay: GIP receptor assay, method A (CRE-luciferase reporter, BHK cells); type: cell-based; conditions: method A, absence of HSA; read-out: hGIPR Potency, no HSA, EC50
Outline: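 BHK cells co-expressing hGIPR and a CRE-luciferase reporter were stimulated for 3 h at 37 °C with a 7-point, 10-fold compound titration in duplicate. Buffer was DMEM, 10 mM HEPES, 1% ovalbumin, 0.1% Pluronic F-68, without HSA or with 1% (w/v) HSA. EC50 [pM] came from four-parameter logistic fits of luminescence.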

[8] = target: T3, human amylin receptor (hAMYR3); assay: Amylin receptor assay, method A (CRE-luciferase reporter, BHK cells); type: cell-based; conditions: method A, absence of HSA; read-out: hAMYR3 Potency, no HSA, EC50
[9] = hGLP-1R Potency, 1% HSA, EC50, methods B, in the presence of 1% HSA
[10] = method B, absence of HSA, read-out: hGLP-1R Potency, no HSA, EC50
[11] = hGIPR Potency, 1% HSA, EC50, methods B, in the presence of 1% HSA
[12] = method B, absence of HSA, read-out: hGIPR Potency, no HSA, EC50
[13] = hAMYR3 Potency, 1% HSA, EC50, methods B, in the presence of 1% HSA
[14] = method B, absence of HSA, read-out: hAMYR3 Potency, no HSA, EC50

T1 sequence (P43220 24-463): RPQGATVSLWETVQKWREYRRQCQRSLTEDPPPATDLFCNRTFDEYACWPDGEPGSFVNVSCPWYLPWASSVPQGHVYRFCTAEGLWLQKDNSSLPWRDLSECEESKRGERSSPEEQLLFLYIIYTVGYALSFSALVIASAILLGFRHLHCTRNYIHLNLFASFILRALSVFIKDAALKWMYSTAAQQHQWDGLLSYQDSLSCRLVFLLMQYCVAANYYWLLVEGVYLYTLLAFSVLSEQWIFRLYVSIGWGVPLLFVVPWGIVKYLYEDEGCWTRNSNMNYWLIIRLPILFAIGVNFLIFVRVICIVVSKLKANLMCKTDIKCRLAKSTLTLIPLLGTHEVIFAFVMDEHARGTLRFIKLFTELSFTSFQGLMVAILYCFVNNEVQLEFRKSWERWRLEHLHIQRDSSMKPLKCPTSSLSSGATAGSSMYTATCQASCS
T3 sequence (P30988 25-474): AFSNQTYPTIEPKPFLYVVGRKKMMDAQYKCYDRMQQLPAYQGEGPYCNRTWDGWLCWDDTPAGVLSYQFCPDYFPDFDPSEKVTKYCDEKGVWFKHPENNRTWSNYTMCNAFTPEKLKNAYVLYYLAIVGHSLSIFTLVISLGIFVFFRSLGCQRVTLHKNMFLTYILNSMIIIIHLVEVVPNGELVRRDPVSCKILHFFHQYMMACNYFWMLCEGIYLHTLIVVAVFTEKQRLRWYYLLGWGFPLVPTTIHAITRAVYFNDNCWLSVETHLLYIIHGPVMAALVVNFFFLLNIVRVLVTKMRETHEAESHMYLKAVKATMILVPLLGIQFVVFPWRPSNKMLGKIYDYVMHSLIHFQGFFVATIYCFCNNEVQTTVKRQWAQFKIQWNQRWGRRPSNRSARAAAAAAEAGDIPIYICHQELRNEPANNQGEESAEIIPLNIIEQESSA
T3 sequence (O60896 24-148): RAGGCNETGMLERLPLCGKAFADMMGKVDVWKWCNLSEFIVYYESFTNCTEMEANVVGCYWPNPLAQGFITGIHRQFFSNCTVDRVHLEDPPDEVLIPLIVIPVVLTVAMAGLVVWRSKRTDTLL

CC[C@H](C)[C@H](NC(=O)[C@H](CCC(=O)O)NC(=O)[C@H](CCC(=O)O)NC(=O)[C@H](CC(C)C)NC(=O)[C@H](CC(C)C)NC(=O)[C@@H](NC(=O)[C@H](CO)NC(=O)[C@H](Cc1ccc(O)cc1)NC(=O)[C@H](CC(=O)O)NC(=O)[C@H](CO)NC(=O)[C@@H](NC(=O)[C@H](Cc1ccccc1)NC(=O)[C@@H](NC(=O)CNC(=O)[C@H](CCC(=O)O)NC(=O)C(C)(C)NC(=O)[C@@H](N)Cc1ccc(O)cc1)[C@@H](C)O)[C@@H](C)O)[C@@H](C)CC)C(=O)N[C@@H](C)C(=O)N[C@@H](C)C(=O)N[C@@H](CCCNC(=N)N)C(=O)N[C@@H](CCC(=O)O)C(=O)N[C@@H](Cc1ccccc1)C(=O)N[C@H](C(=O)N[C@@H](CCC(=O)O)C(=O)N[C@@H](Cc1c[nH]c2ccccc12)C(=O)N[C@@H](CC(C)C)C(=O)N[C@@H](CC(C)C)C(=O)N[C@@H](C)C(=O)NCC(=O)NCC(=O)N1CCC[C@H]1C(=O)N[C@@H](CO)C(=O)N[C@@H](CO)C(=O)N[C@@H](CCC(=O)O)C(=O)N[C@@H](C)C(=O)NCC(=O)N[C@@H](CCC(N)=O)C(=O)N[C@@H](C)C(=O)N1CCC[C@H]1C(=O)NCC(=O)N[C@@H](CCC(N)=O)C(=O)N[C@@H](C)C(=O)N1CCC[C@H]1C(=O)NCC(=O)N[C@@H](C)C(=O)N[C@@H](CO)C(=O)N[C@@H](Cc1c[nH]cn1)C(=O)N[C@@H](CC(C)C)C(=O)N[C@@H](CO)C(=O)N[C@H](C(=O)N[C@@H](C)C(=O)N[C@@H](CCC(N)=O)C(=O)N[C@H](C(=O)N[C@@H](CCC(N)=O)C(=O)N[C@@H](CCCNC(=N)N)C(=O)N[C@@H](CC(C)C)C(=O)N[C@@H](CO)C(=O)N[C@@H](C)C(=O)N[C@@H](CCC(=O)O)C(=O)N[C@@H](CC(C)C)C(=O)N[C@@H](Cc1c[nH]cn1)C(=O)N[C@@H](CCCCNC(=O)COCCOCCNC(=O)COCCOCCNC(=O)CC[C@H](NC(=O)CCCCCCCCCCCCCCCCCCC(=O)O)C(=O)O)C(=O)N[C@@H](CC(C)C)C(=O)N[C@@H](C)C(=O)N[C@H](C(=O)N[C@@H](CCC(=O)O)C(=O)N1CCC[C@H]1C(=O)N[C@@H](CCCNC(=N)N)C(=O)N[C@H](C(=O)N[C@@H](CCC(=O)O)C(=O)N[C@H](C(=O)NCC(=O)N[C@@H](CO)C(=O)NCC(=O)N[C@@H](CO)C(=O)N1CCC[C@H]1C(N)=O)[C@@H](C)O)[C@@H](C)O)[C@@H](C)O)[C@@H](C)O)[C@@H](C)O)[C@@H](C)CC [Compound 165]
EC50 [1, 9]: 0.0888 nM | EC50 [1, 10]: 0.0251 nM | EC50 [2, 11]: 0.00764 nM | EC50 [2, 12]: 0.00239 nM | EC50 [3, 13]: 0.537 nM | EC50 [3, 14]: 0.0094 nM | Purity loss per week at 37° C. [4]: 1.0%

CC[C@H](C)[C@H](NC(=O)[C@H](CCC(=O)O)NC(=O)[C@H](CCC(=O)O)NC(=O)[C@H](CC(C)C)NC(=O)[C@H](CC(C)C)NC(=O)[C@@H](NC(=O)[C@H](CO)NC(=O)[C@H](Cc1ccc(O)cc1)NC(=O)[C@H](CC(=O)O)NC(=O)[C@H](CO)NC(=O)[C@@H](NC(=O)[C@H](Cc1ccccc1)NC(=O)[C@@H](NC(=O)CNC(=O)[C@H](CCC(=O)O)NC(=O)C(C)(C)NC(=O)[C@@H](N)Cc1ccc(O)cc1)[C@@H](C)O)[C@@H](C)O)[C@@H](C)CC)C(=O)N[C@@H](C)C(=O)N[C@@H](C)C(=O)N[C@@H](CCCNC(=N)N)C(=O)N[C@@H](CCC(=O)O)C(=O)N[C@@H](Cc1ccccc1)C(=O)N[C@H](C(=O)N[C@@H](CCC(=O)O)C(=O)N[C@@H](Cc1c[nH]c2ccccc12)C(=O)N[C@@H](CC(C)C)C(=O)N[C@@H](CC(C)C)C(=O)N[C@@H](C)C(=O)NCC(=O)NCC(=O)N1CCC[C@H]1C(=O)N[C@@H](CO)C(=O)N[C@@H](CO)C(=O)NCC(=O)N[C@@H](C)C(=O)NCC(=O)N[C@@H](C)C(=O)N[C@@H](CO)C(=O)N[C@@H](CCC(=O)O)C(=O)N[C@@H](CC(C)C)C(=O)N[C@@H](CO)C(=O)N[C@H](C(=O)N[C@@H](C)C(=O)N[C@@H](CCC(N)=O)C(=O)N[C@H](C(=O)N[C@@H](CCC(N)=O)C(=O)N[C@@H](CCCNC(=N)N)C(=O)N[C@@H](CC(C)C)C(=O)N[C@@H](CO)C(=O)N[C@@H](C)C(=O)N[C@@H](CCC(=O)O)C(=O)N[C@@H](CC(C)C)C(=O)N[C@@H](Cc1c[nH]cn1)C(=O)N[C@@H](CCCCNC(=O)COCCOCCNC(=O)COCCOCCNC(=O)CC[C@H](NC(=O)CCCCCCCCCCCCCCCCCCC(=O)O)C(=O)O)C(=O)N[C@@H](CC(C)C)C(=O)N[C@@H](C)C(=O)N[C@H](C(=O)N[C@@H](CC(C)C)C(=O)N1CCC[C@H]1C(=O)N[C@@H](CCCNC(=N)N)C(=O)N[C@H](C(=O)N[C@@H](CCC(=O)O)C(=O)N[C@H](C(=O)NCC(=O)N[C@@H](CO)C(=O)NCC(=O)N[C@@H](CO)C(=O)N1CCC[C@H]1C(N)=O)[C@@H](C)O)[C@@H](C)O)[C@@H](C)O)[C@@H](C)O)[C@@H](C)O)[C@@H](C)CC [Compound 176]
EC50 [1, 9]: 0.178 nM | EC50 [1, 10]: 0.0299 nM | EC50 [2, 11]: 0.0238 nM | EC50 [2, 12]: 0.00366 nM | EC50 [3, 13]: 0.798 nM | EC50 [3, 14]: 0.0112 nM | Food intake (relative to vehicle) Day 1 ([5]; day 1 [0-24 hours]): −12% | Food intake (relative to vehicle) Day 2 ([5]; day 2 [24-48 hours]): 2% | Food intake (relative to vehicle) Day 3 ([5]; day 3 [48-72 hours]): 7%

Y[Aib]EGTFTSDYSILLEEQAAREFIEWLLAGGPSK([AEEA-AEEA-γGlu-C16 diacid])GEASELSTAALGRLSAELHRLATLPRTETGSGSP-NH2 [Compound 18]
EC50 [6]: 0.0528 nM | EC50 [1, 9]: 0.135 nM | EC50 [7]: 0.00725 nM | EC50 [2, 11]: 0.0201 nM | EC50 [8]: 0.00393 nM | EC50 [3, 13]: 1.3 nM
